This note sets out measurements from ChEMBL document CHEMBL5053501, “1,4,9-Triazaspiro[5.5]undecan-2-one Derivatives as Potent and Selective METTL3 Inhibitors” (J Med Chem, 2021).

Series [1] has as its target N6-adenosine-methyltransferase catalytic subunit (Homo sapiens, UniProt Q86U44). The series can be described thus: Inhibition of recombinant […] (unknown origin) expressed in baculovirus infected Sf9 cells assessed as decrease in N6-methyladenosine level in oligonucleotide substrate by TR-FRET assay. Background: Time-resolved FRET reads energy transfer from a long-lived donor to a nearby acceptor.

The species entered for series [2] is Homo sapiens. The series can be described thus: Binding affinity to human METTL1 assessed as change in melting temperature at 1000 uM by thermal shift assay.
Series [3] is filed under the species Homo sapiens. The series can be described thus: Binding affinity to human METTL16 assessed as change in melting temperature at 1000 uM by thermal shift assay.
The target of series [4] is T1, METTL3/METTL14 (Homo sapiens) (UniProt Q86U44+Q9HCE5). The settings on record: dose 1000.0 µM.
Series [5] can be described thus: Metabolic stability in rat liver microsomes assessed as half life by LC-MS analysis. Format: ADME, Microsome. For orientation: Liver microsomes are vesicles of endoplasmic reticulum, rich in cytochrome P450 enzymes.
A short description of series [6]: Kinetic solubility of the compound in PBS at pH 7.4 at 100 uM incubated for 1 hr by LCMS/MS analysis. Format: physicochemical. The settings on record: read-out: Kinetic_solubility.
Series [7] has as its system MOLM-13. As to the kind of experiment: Reduction in m6A levels in mRNA fraction in human MOLM-13 cells at 10 uM measured after 6 days by UPLC-MS/MS analysis. As to conditions: time 6.0 day. It counts as functional, cell-based.
The species entered for series [8] is Homo sapiens. The series can be described thus: Binding affinity to human METTL1 assessed as change in melting temperature at 100 uM by thermal shift assay.
Series [9] relates to MOLM-13. The series can be described thus: Reduction in m7G levels in mRNA fraction in human MOLM-13 cells at 10 uM measured after 6 days by UPLC-MS/MS analysis. It counts as functional, cell-based. The settings on record: time 6.0 day.
Series [10] can be described thus: Reduction in m6A/A ratio in poly-adenylated RNA fraction of human MOLM-13 cells measured after 16 hrs by UPLC-MS/MS analysis. Format: functional, cell-based.
Series [11] has as its system MOLM-13. As to the kind of experiment: Growth inhibition of human MOLM-13 cells assessed as cell viability measured after 3 days. Format: functional. The settings on record: MOLM-13, 72 h, time 3 day.
Series [12] is filed under the species Homo sapiens. As to the kind of experiment: Binding affinity to human METTL16 assessed as change in melting temperature at 100 uM by thermal shift assay.
The test system of series [13] is PC-3. As to the kind of experiment: Effect on METTL3 expression in human PC-3 cells at 10 uM incubated for 16 hrs by Western blotting analysis. It counts as functional, cell-based. A general note: Immunoblotting shows a protein as a band on a membrane.
Series [14] concerns PC-3. As to the kind of experiment: Growth inhibition of human PC-3 cells assessed as cell viability measured after 3 days. As to conditions: PC-3, 72 h, time 3 day. Format: functional.
The test system of series [15] is MOLM-13. As to the kind of experiment: Reduction in m6Am levels in total RNA fraction in human MOLM-13 cells at 10 uM measured after 6 days by UPLC-MS/MS analysis. It counts as functional, cell-based. As to conditions: time 6.0 day.
Series [16] concerns MOLM-13. The series can be described thus: Effect on METTL3 expression in human MOLM-13 cells at 10 uM incubated for 16 hrs by Western blotting analysis. It counts as functional, cell-based.
Series [17] relates to MOLM-13. As to the kind of experiment: Reduction in m1A levels in mRNA fraction in human MOLM-13 cells at 10 uM measured after 6 days by UPLC-MS/MS analysis. As to conditions: time 6.0 day. Format: functional, cell-based.
Series [18] concerns MOLM-13. The series can be described thus: Reduction in m6A levels in total RNA fraction in human MOLM-13 cells at 10 uM measured after 6 days by UPLC-MS/MS analysis. The settings on record: time 6.0 day. Format: functional, cell-based.
Series [19] concerns the target T1, METTL3/METTL14 (Homo sapiens). The settings on record: dose 100.0 µM.

The term IC50 denotes the concentration that gives 50% inhibition. As a reminder, the ΔTm is the shift of the melting midpoint relative to a reference. For orientation: half-life means how long it takes for the measured level to halve. As a reminder, the EC50 is the midpoint of the concentration-response curve. As a reminder, the GI50 is the concentration at which growth is held to half of that of the control.

In brackets after ≈: the same amount, converted by molar mass. Activity calls are given as the source filed them. The calls are words filed in the database; no cut-off is given here.

Chain of N6-adenosine-methyltransferase catalytic subunit (Q86U44 whole entry): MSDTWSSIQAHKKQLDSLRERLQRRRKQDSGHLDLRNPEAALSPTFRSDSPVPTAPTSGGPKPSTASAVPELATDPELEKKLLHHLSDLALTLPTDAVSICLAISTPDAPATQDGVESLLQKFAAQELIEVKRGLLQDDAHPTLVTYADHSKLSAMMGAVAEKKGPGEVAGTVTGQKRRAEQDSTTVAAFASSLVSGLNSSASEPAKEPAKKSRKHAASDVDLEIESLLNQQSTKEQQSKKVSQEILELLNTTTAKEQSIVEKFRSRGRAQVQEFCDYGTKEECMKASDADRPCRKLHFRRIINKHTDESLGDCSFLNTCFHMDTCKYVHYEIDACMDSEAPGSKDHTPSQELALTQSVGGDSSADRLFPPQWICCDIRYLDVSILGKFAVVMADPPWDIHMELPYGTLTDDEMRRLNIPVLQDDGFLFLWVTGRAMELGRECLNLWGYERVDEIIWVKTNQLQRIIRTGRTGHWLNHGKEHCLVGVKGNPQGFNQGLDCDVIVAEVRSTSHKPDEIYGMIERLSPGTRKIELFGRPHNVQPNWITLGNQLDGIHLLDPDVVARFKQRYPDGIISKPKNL

For `CNc1cc(N2CCCC(O)(CNC(=O)c3ccc(CN4CCC(C)(C)CC4)cc3)C2)ncn1` (configuration not stated), the IC50 in [1] was found to be 7 µM.
Regarding `Nc1ncnc2c1ncn2[C@@H]1O[C@H](CSCC[C@H](N)C(=O)O)[C@@H](O)[C@H]1O` [S-ADENOSYLHOMOCYSTEINE], the ΔTm in the series filed under Homo sapiens [2] is 6.3 °C; in the series filed under Homo sapiens [3], 0.8 °C; in series [4], 3.7 °C. Besides, the half-maximal inhibitory concentration (IC50) in series [1] turned out to be 0.59 µM.
As for `CNc1cc(N2CC3(CN(c4ccc(CN5CCC(C)(C)CC5)cc4)CC(=O)N3)C2)ncn1`, the half-life in series [5] was 70 min. For the same compound, the solubility kinetic at 1 h, 100 µM in series [6] was 86 µM (≈ 38.7 µg/mL).
With `CNc1cc(N2CCC3(CC2)CN(c2cc(F)c(CN4CCC(C)(C)CC4)cc2F)CC(=O)N3)ncn1`, the result in the series with MOLM-13 [7], in the series on PC-3 [13], with MOLM-13 [15], with MOLM-13 [16] and in the series with MOLM-13 [18] was Active. In addition, the deltaTm entry in the series filed under Homo sapiens [8] and in the series filed under Homo sapiens [12] was “inactive” throughout. Moreover, the result in the series with MOLM-13 [9] and in the series with MOLM-13 [17] was inactive. Further, the EC50 in [10] amounted to 0.7 µM. Besides, the GI50 in the series on MOLM-13 [11] is 12 µM; in the series with PC-3 [14] it was 70 µM. Besides, the ΔTm in [19] stood at 4.7 °C.
With `CC1(C)CCN(Cc2ccc(N3CC(=O)NC4(CCN(c5nc(Cl)nc6[nH]ccc56)CC4)C3)cc2)CC1`, in series [5], the half-life turned out to be 32 min. For the same compound, the solubility kinetic at 1 h, 100 µM in series [6] is 45 µM (≈ 23.5 µg/mL).
